Literature values as cited in article PMC11089243, “The first selective VAP-1 inhibitor in China, TT-01025-CL: safety, tolerability, pharmacokinetics, and pharmacodynamics of single- and multiple-ascending doses” (Frontiers in Pharmacology, 2024).

What was measured:
[1] = set-up: method as in NASH, 2022; conditions: ref NASH, 2022
[2] = test system: monoamine oxidase-B in the brain; set-up: method as in NASH, 2022; conditions: NASH patients; inhibition of monoamine oxidase-B in the brain; ref NASH, 2022

Q: Which “brain penetration (in words)” value [1] does the source give for `CC(C)(C)NC(=O)c1ccc(OC/C(=C/F)CN)cc1.Cl` [BI 1467335] here?
A: The value was “high brain penetration”.

Q: And the “finding of phase I study leading to suspension of development” value [2]?
A: The value was “risk of drug interactions”.
